Assay results reported in patent publication US20260225997A1, “IONIZABLE AMINE LIPIDS” (Intellia Therapeutics, Inc., priority 2018, published 2026).
Like-named read-outs stand apart in the source and are kept apart here.

Legend:
[1] = RNA encapsulation efficiency of LNP (Ribogreen fluorescence assay); type: physicochemical; settings: Table 14, Example 58: LNP, G282 (TTR) 1:1 w/w, N:P 6.0
Protocol: A fluorescence-based assay (Ribogreen®, ThermoFisher Scientific) is used to determine total RNA concentration and free RNA. Encapsulation efficiency is calculated as (Total RNA−Free RNA)/Total RNA. LNP samples are diluted appropriately with 1× TE buffer containing 0.2% Triton-X 100 to determine total RNA or 1× TE buffer to determine free RNA. Standard curves are prepared by utilizing the starting RNA solution used to make the compositions and diluted in 1× TE buffer+/−0.2% Triton-X 100. Diluted RiboGreen® dye (according to the manufacturer's instructions) is then added to each of the standards and samples and allowed to incubate for approximately 10 minutes at room temperature, in the absence of light. A SpectraMax M5 Microplate Reader (Molecular Devices) is used to read the samples with excitation, auto cutoff and emission wavelengths set to 488 nm, 515 nm, and 525 nm respectively. Total RNA and free RNA are determined from the appropriate standard curves.
Encapsulation efficiency is calculated as (Total RNA−Free RNA)/Total RNA. The same procedure may be used for determining the encapsulation efficiency of a DNA-based cargo component. For single-strand DNA Oligreen Dye may be used, and for double-strand DNA, Picogreen Dye.

[2] = LNP average particle size and polydispersity by dynamic light scattering (Malvern Zetasizer); type: physicochemical; settings: Table 14, Example 58: LNP, G282 1:1
Excerpt: The LNPs have a size of about 1 to about 1,000 nm, about 10 to about 500 nm, about 20 to about 500 nm, in a sub-embodiment about 50 to about 400 nm, in a sub-embodiment about 50 to about 300 nm, in a sub-embodiment about 50 to about 200 nm, and in a sub-embodiment about 50 to about 150 nm, and in another sub-embodiment about 60 to about 120 nm. Preferably, the LNPs have a size from about 60 nm to about 100 nm. The average sizes (diameters) of the fully formed LNP, may be measured by dynamic light scattering on a Malvern Zetasizer. The LNP sample is diluted in phosphate buffered saline (PBS) so that the count rate is approximately 200-400 kcps. The data is presented as a weighted average of the intensity measure.
The LNPs disclosed herein have a size (e.g. Z-average diameter) of about 1 to about 250 nm. In some embodiments, the LNPs have a size of about 10 to about 200 nm. In further embodiments, the LNPs have a size of about 20 to about 150 nm. In some embodiments, the LNPs have a size of about 50 to about 150 nm. In some embodiments, the LNPs have a size of about 50 to about 100 nm. In some embodiments, the LNPs have a size of about 50 to about 120 nm. In some embodiments, the LNPs have a size of about 60 to about 100 nm. In some embodiments, the LNPs have a size of about 75 to about 150 nm. In some embodiments, the LNPs have a size of about 75 to about 120 nm. In some embodiments, the LNPs have a size of about 75 to about 100 nm. Unless indicated otherwise, all sizes referred to herein are the average sizes (diameters) of the fully formed nanoparticles, as measured by dynamic light scattering on a Malvern Zetasizer. The nanoparticle sample is diluted in phosphate buffered saline (PBS) so that the count rate is approximately 200-400 kcps. The data is presented as a weighted-average of the intensity measure (Z-average diameter).
Dynamic Light Scattering (“DLS”) is used to characterize the polydispersity index (“pdi”) and size of the LNPs of the present disclosure. DLS measures the scattering of light that results from subjecting a sample to a light source. PDI, as determined from DLS measurements, represents the distribution of particle size (around the mean particle size) in a population, with a perfectly uniform population having a PDI of zero.
LNP compositions are analyzed for average particle size, polydispersity index (pdi), total RNA content, encapsulation efficiency of RNA, and zeta potential. LNP compositions may be further characterized by lipid analysis, AF4-MALS, NTA, and/or cryo-EM. Average particle size and polydispersity are measured by dynamic light scattering (DLS) using a Malvern Zetasizer DLS instrument. LNP samples were diluted with PBS buffer prior to being measured by DLS. Z-average diameter which is an intensity-based measurement of average particle size was reported along with number average diameter and pdi. A Malvern Zetasizer instrument is also used to measure the zeta potential of the LNP. Samples are diluted 1:17 (50 μL into 800 μL) in 0.1×PBS, pH 7.4 prior to measurement.

[3] = system: TTR; assay: Transthyretin (TTR) ELISA analysis of mouse serum after LNP dosing; type: in vivo; settings: for response vs control in vivo at 0.1 mg/kg / response vs control in vivo at 0.03 mg/kg / inhibition in vivo at 0.03 mg/kg: Mus musculus, iv; for response vs control in vivo at 0.1 mg/kg / response vs control in vivo at 0.03 mg/kg: read-out: Serum TTR % TSS; for inhibition in vivo at 0.03 mg/kg: read-out: Serum TTR (% KD)
Protocol: (§1) CD-1 female mice, ranging from 6-10 weeks of age were used in each study. Animals were weighed and grouped according to body weight for preparing dosing solutions based on group average weight. LNPs were dosed via the lateral tail vein in a volume of 0.2 mL per animal (approximately 10 mL per kilogram body weight). The animals were periodically observed post dose for adverse effects for at least 24 hours post dose. Animals were euthanized at 6 or 7 days by exsanguination via cardiac puncture under isoflurane anesthesia. Blood was collected into serum separator tubes or into tubes containing buffered sodium citrate for plasma as described herein. For studies involving in vivo editing, liver tissue was collected from each animal for DNA extraction and analysis.
CD-1 female mice were dosed i.v. at 0.1 mpk or 0.3 mpk. […] For animals dosed with G282 targeting TTR, blood and the liver were collected and serum TTR and editing were measured. For animals dosed with G650 targeting B2M, liver was collected and editing was measured.
Blood was collected and the serum was isolated as indicated. The total mouse TTR serum levels were determined using a Mouse Prealbumin (Transthyretin) ELISA Kit (Aviva Systems Biology, Cat. OKIA00111). Briefly, sera were serial diluted with kit sample diluent to a final dilution of 10,000-fold for 0.1 mpk dose and 2,500-fold for 0.3 mpk. This diluted sample was then added to the ELISA plates and the assay was then carried out according to directions.

[4] = pKa measurement of unformulated amine lipid (fluorescence, method of Jayaraman et al.); type: physicochemical; settings: 100 μM in 0.1 M phosphate buffer pH 4.5-9.0
Protocol: The pKa of each amine lipid was determined according to the method in Jayaraman, et al. (Angewandte Chemie, 2012) with the following adaptations. […] Lipid was diluted to 100 μM in 0.1 M phosphate buffer (Boston Bioproducts) where the pH ranged from 4.5-9.0. Fluorescence intensity was measured using excitation and emission wavelengths of 321 nm and 448 nm.

[5] = system: TTR; assay: TTR editing in mouse liver by NGS after i.v. LNP delivery of Cas9 mRNA and sgRNA; type: in vivo; settings: CD-1 female mice
Protocol: Preparations of various LNP compositions were prepared with amine lipids. In assays for percent liver editing in mice, Cas9 mRNA and chemically modified sgRNA were formulated in LNPs, at either a 1:1 w/w ratio or a 1:2 w/w ratio. LNPs are formulated with a composition of a given ionizable lipid (e.g. an amine lipid), DSPC, cholesterol, and PEG-2k-DMG, with a 6.0 N:P ratio.
as §1
Cohorts of mice were measured for liver editing by Next-Generation Sequencing (NGS).
In brief, to quantitatively determine the efficiency of editing at the target location in the genome, genomic DNA was isolated and deep sequencing was utilized to identify the presence of insertions and deletions introduced by gene editing.
PCR primers were designed around the target site (e.g., B2M), and the genomic area of interest was amplified. Additional PCR was performed according to the manufacturer's protocols (Illumina) to add the necessary chemistry for sequencing. The amplicons were sequenced on an Illumina MiSeq instrument. The reads were aligned to the […] after eliminating those having low quality scores. The resulting files containing the reads were mapped to the reference genome (BAM files), where reads that overlapped the target region of interest were selected and the number of wild type reads versus the number of reads which contain an insertion, substitution, or deletion was calculated.
The editing percentage (e.g., the “editing efficiency” or “percent editing”) is defined as the total number of sequence reads with insertions or deletions over the total number of sequence reads, including wild type.
CD-1 female mice were dosed i.v. at 0.1 mpk or 0.3 mpk. At 6 days post-dose, animals were sacrificed. For animals dosed with G282 targeting TTR, blood and the liver were collected and serum TTR and editing were measured. For animals dosed with G650 targeting B2M, liver was collected and editing was measured.

[6] = Example 58: 0.1 mpk i.v., 6 days post-dose, G282 1:1
[7] = 144 h, Example 58: 0.1 mpk i.v., 6 days post-dose, G282 1:1
[8] = Example 60: 0.1 mpk i.v., 6 days post-dose, G502 1:2
[9] = Example 63: 0.03 mpk i.v., 7 days post-dose, G282 1:1
[10] = Example 63: 0.1 mpk i.v., 7 days post-dose, G282 1:1
[11] = 168 h, Example 63: 0.03 mpk i.v., 7 days post-dose, G282 1:1
[12] = 168 h, Example 63: 0.1 mpk i.v., 7 days post-dose, G282 1:1
[13] = Example 64: Dose 0.03 mpk (table) i.v., 7 days post-dose, G282 1:1
[14] = 168 h, Example 64: Dose 0.03 mpk (table) i.v., 7 days post-dose, G282 1:1

Compound	pKa [4]	Serum TTR [3, 9] [µg/mL]	Serum TTR [3, 10] [µg/mL]	response vs control in vivo at 0.03 mg/kg [3, 11] [%]	response vs control in vivo at 0.1 mg/kg [3, 12] [%]	Editing Mean % Indel [5, 9] [%]	Editing Mean % Indel [5, 10] [%]	also measured
CCCCCCCCOC(CCCCCCCN(CCO)CCCCCCCCCC(=O)OCCCCCCC)OCCCCCCCC [Compound 11, heptyl 10-((8,8-bis(octyloxy)octyl)(2-hydroxyethyl)amino)decanoate]	6.35	–	–	–	–	–	–	Encapsulation (%) [1]: 86%; Num Ave Size (nm) [2]: 54.58 nm; PDI [2]: 0.137; Z-Ave Size (nm) [2]: 89.3 nm; Serum TTR [3, 6]: 553 µg/mL; response vs control in vivo at 0.1 mg/kg [3, 7]: 56%; Editing Mean % Indel [5, 6]: 29.4%
CCCCCCCCCCCOC(=O)CCCCCN(CCO)CCCCCCCC(OCCCCCCCC)OCCCCCCCC [Compound 13, undecyl 6-((8,8-bis(octyloxy)octyl)(2-hydroxyethyl)amino)hexanoate]	6.35	–	–	–	–	–	–	Encapsulation (%) [1]: 98%; Num Ave Size (nm) [2]: 63.34 nm; PDI [2]: 0.04; Z-Ave Size (nm) [2]: 77.34 nm; Serum TTR [3, 6]: 703 µg/mL; response vs control in vivo at 0.1 mg/kg [3, 7]: 71%; Editing Mean % Indel [5, 6]: 22.6%
CCCCCCCCCOC(=O)CCCCCCCN(CCO)CCCCCCCC(OC(C)CCCCCC)OC(C)CCCCCC (stereo not shown) [Compound 25, nonyl 8-[8,8-bis(1-methylheptoxy)octyl-(2-hydroxyethyl)amino]octanoate]	6.1	–	–	–	–	–	–	Serum TTR [3, 8]: 985 µg/mL; response vs control in vivo at 0.1 mg/kg ([3]; 144 h, Example 60: 0.1 mpk i.v., 6 days post-dose, G502 1:2): 69%; Editing Mean % Indel [5, 8]: 15.3%
CCCCCCCCOC(CCCCCCCN(CCO)CCCCCCCC(=O)OC(C)CCCCCC)OCCCCCCCC (stereo not shown) [Compound 27, octan-2-yl 8-((8,8-bis(octyloxy)octyl)(2-hydroxyethyl)amino)octanoate]	6.41	497.99	197.22	61.7	24.4	27.86	57.10	–
CCCCCCCCOC(CCCCCCCN(CCO)CCCCCCCC(=O)OCCCCC)OCCCCCCCC [Compound 29, pentyl 8-((8,8-bis(octyloxy)octyl)(2-hydroxyethyl)amino)octanoate]	6.54	718.48	660.46	89	81.8	5.76	15.96	–
CCCCCCCCOC(CCCCCCCN(CCO)CCCCCCCC(=O)OC(CC)CCCC)OCCCCCCCC (stereo not shown) [Compound 30, heptan-3-yl 8-((8,8-bis(octyloxy)octyl)(2-hydroxyethyl)amino)octanoate]	6.48	514.23	125.89	63.7	15.6	27.64	62.48	–
CCCCCCCCCOC(=O)CCCCCCCN(CCCCCCC(OCCCCCCCC)OCCCCCCCC)CCNC(C)=O [Compound 41, nonyl 8-((2-acetamidoethyl)(7,7-bis(octyloxy)heptyl)amino)octanoate]	6.82	–	–	–	–	–	–	Serum TTR [3, 13]: 567.1 µg/mL; inhibition in vivo at 0.03 mg/kg [3, 14]: 1%; Editing Mean % Indel [5, 13]: 2.4%
CCCCCCCCCOC(=O)CCCCCCCN(CCCCCCC(OCCCCCCCC)OCCCCCCCC)CCCNC(C)=O [Compound 42, nonyl 8-((3-acetamidopropyl)(7,7-bis(octyloxy)heptyl)amino)octanoate]	7.19	–	–	–	–	–	–	Serum TTR [3, 13]: 571.6 µg/mL; inhibition in vivo at 0.03 mg/kg [3, 14]: 0.2%; Editing Mean % Indel [5, 13]: 9.6%
